Values quoted from earlier work, collected in patent publication US6753298B2, “Agents for combating Neospora spec” (Bayer AG, priority 1997, dated 2004).

Tested on: Neospora
Conditions: experimentally infected mice; administered by drinking water

## Nc1ccc(S(=O)(=O)Nc2ncccn2)cc1 [sulphadiazine]
  in-vivo efficacy: effective only when the treatment was prophylactic
